Patent US20210147811A1, “METHODS FOR IN VITRO EXPANSION OF ADULT TISSUE STEM CELLS” (CEDARS-SINAI MEDICAL CENTER, priority 2018, published 2021)

Assays:
[1] = system: freshly isolated alveolar type II cells; assay: Organoid culture of lineage labelled murine alveolar type II cells; assay type: cell-based; conditions: GFP+ alveolar type II cells, in presence of SB431542
Description: FIG. 15. Effect of ROCK and P53 inhibition on lineage labelled murine alveolar type II cells. GFP^+ alveolar type II cells were isolated from tamoxifen treated SPC-CreER/ROSARG mice. Addition of both ROCKi and Pifithrin alpha (in presence of SB431542) increases the colony forming efficiency of freshly isolated alveolar typeII cells (regional stem cells which maintain the epithelium of the air sacs in the lung). The effect is synergistic for their combined use, similar to that seen for total distal epithelial cells in the previous figures.
ROCKi increases the colony forming efficiency when murine distal total epithelial cells (isolated from the lung without trachea) are pre-cultured on collagen coated plates for 24 hrs prior after initial isolation. The effect on size is more pronounced when cells are precultured for 24 hrs on collagen coated plates after initial isolation. The drop in CFE in the Pifithrin alpha+ROCKi group is likely due space and nutrient availability constraints due to the large number of organoids per well. Addition of both ROCKi and Pifithrin alpha (in presence of SB431542) increases the colony forming efficiency of freshly isolated alveolar type II cells (regional stem cells which maintain the epithelium of the air sacs in the lung). The effect is synergistic for their combined use, similar to that seen for total distal epithelial cells in the previous figures.

[2] = system: freshly isolated murine proximal total epithelial cells; assay: Organoid culture of murine tracheal progenitor (basal) cells; assay type: cell-based
Experimental: FIG. 18. Effect of ROCK and P53 inhibition on murine tracheal progenitor (basal) cells. Addition of both ROCKi (in presence of SB431542) increases the colony forming efficiency of freshly isolated murine proximal total epithelial cells (isolated from the murine trachea).
(§1) Distal progenitor cells were cultured as 3D organoids for 14 days in presence of Pifithrin-alpha, ROCKi and SB431542 followed by culture for 7 days in media without all three inhibitors. […] Addition of ROCKi (in presence of SB431542) increases the colony forming efficiency of freshly isolated club cells (regional stem cells which maintain certain cell types in the bronchiolar epithelium) whereas addition of Pifithrin alpha (in presence of SB431542) increases the size of Scgb1a1-derived organoids. Addition of both ROCKi (in presence of SB431542) increases the colony forming efficiency of freshly isolated murine proximal total epithelial cells (isolated from the murine trachea).

[3] = system: distal progenitor cells; assay: Differentiation potential of distal progenitors after 3D organoid culture with inhibitors; assay type: cell-based; conditions: 14 days with Pifithrin-alpha, ROCKi and SB431542, then 7 days without inhibitors, PDPN and SPC staining
Experimental: FIG. 16. […] Distal progenitor cells were cultured as 3D organoids for 14 days in presence of Pifithrin-alpha, ROCKi and SB431542 followed by culture for 7 days in media without all three inhibitors. […] DAPI (blue) is a nuclear stain.
as §1

[4] = target: T1, p53 (Homo sapiens, UniProt P04637); conditions: cited from earlier work
T1 construct: host or cells: neuronal cells (not further described)
T1 sequence (P04637 whole entry, species assumed): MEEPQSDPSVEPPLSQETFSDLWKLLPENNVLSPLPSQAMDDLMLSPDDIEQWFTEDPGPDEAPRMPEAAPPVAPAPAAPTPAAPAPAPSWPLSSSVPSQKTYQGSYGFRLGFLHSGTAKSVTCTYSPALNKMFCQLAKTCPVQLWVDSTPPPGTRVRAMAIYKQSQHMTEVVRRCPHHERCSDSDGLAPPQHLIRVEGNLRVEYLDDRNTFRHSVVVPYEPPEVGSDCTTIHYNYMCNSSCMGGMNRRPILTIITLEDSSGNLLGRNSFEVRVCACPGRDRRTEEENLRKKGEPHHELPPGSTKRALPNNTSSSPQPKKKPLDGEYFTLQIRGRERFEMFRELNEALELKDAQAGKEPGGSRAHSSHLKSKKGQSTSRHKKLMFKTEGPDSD

[5] = system: freshly isolated club cells; assay: Organoid culture of lineage labelled murine club cells; assay type: cell-based; conditions: GFP+ club cells, in presence of SB431542
Description: FIG. 17. Effect of ROCK and P53 inhibition on lineage labelled murine club cells. GFP^+ club cells were isolated from tamoxifen treated Scgb1a1-CreER/ROSARG mice. Addition of ROCKi (in presence of SB431542) increases the colony forming efficiency of freshly isolated club cells (regional stem cells which maintain certain cell types in the bronchiolar epithelium) whereas addition of Pifithrin alpha (in presence of SB431542) increases the size of Scgb1a1-derived organoids.
as §1

[6] = system: freshly isolated cells; assay: Freshly isolated cells cultured with small molecules at different time points (proliferation); assay type: cell-based; conditions: different time points (FIG. 2)
Description: FIG. 1. Experimental design. Preconditioning of donor cells, including addition of small molecules such as ROCK inhibitor, pifithrin α, or combined together, and generation of organoids.
FIG. 2. Freshly isolated cells cultured with small molecules at different time points.

Cc1ccc(C(=O)Cn2c3c(sc2=N)CCCC3)cc1 [Pifithrin α]
colony forming efficiency [1]: increases | size of the alveolar organoids [1]: does not increase | colony forming efficiency ([2]; cells isolated from the murine trachea, in presence of SB431542): does not show a significant effect | survival of proximal and distal progenitors (inferred from colony forming ability) ([2]; comparison of proximal and distal progenitor cell types): specific to distal stem cells | differentiation potential ([3]; listed as Pifithrin alpha): do not alter | differentiation potential ([3]; listed as Pifithrin-alpha): did not alter | protection against p53-induced neuronal cell death [4]: protection | size of Scgb1a1-derived organoids [5]: increases | proliferation of cells [6]: have an effect on proliferation
